Experimental data taken from patent publication US7429607B2, “5-HT2B receptor antagonists” (Asterand UK Limited, priority 2002, dated 2008).

Experiments:
[1] = biological target: T1, cloned human 5-HT2A receptor (Homo sapiens, UniProt P28223); experiment: Human 5-HT2A receptor binding assay ([3H]ketanserin, CHO-K1 membranes); details: displacement of [3H]ketanserin (1 nM), read-out: 5-HT2A pKi (converted)
T1 construct: purchased Euroscreen; host or cells: CHO-K1 cells
Method: The binding affinity of ligands for human 5-HT2A and 5-HT2C receptors was determined using the following assay.
Membrane preparations from CHO-K1 cells expressing the cloned human 5-HT2A receptor were obtained (Euroscreen). The membranes were thawed rapidly and diluted in assay buffer containing Tris-HCl (50 mM, pH 7.7). The membranes were resuspended by homogenisation, prior to adding 15 μg of membranes to assay wells containing [3H] ketanserin (1 nM), assay buffer (50 mM Tris at pH 7.4) containing pargyline (10 μM), and test compounds (1×10^−10 to 1×10^−4M). Non specific binding was determined in the presence of 100 μM mianserin. After 15 minutes incubation at 37° C., the assay mixture was filtered through a combination of GF-C and GF-B filters, pre-soaked in 0.05% Brij, using a Brandel cell harvester, and were washed three times using ice cold Tris-HCl buffer (50 mM). Radioactivity retained on the filters was determined by liquid scintillation counting. For each test compound, the concentration that inhibited binding of [^3H]ketanserin by 50% was determined using curve fitting software (Prism). Kd values (concentration of ketanserin required to occupy 50% of the receptor binding sites at equlibrium) determined from saturation binding studies were then used to calculate inhibition dissociation constants (Ki) using the following equation: […]

[2] = biological target: T2, human cloned 5-HT2B receptors (Homo sapiens, UniProt P41595); experiment: Human cloned 5-HT2B receptor binding assay ([3H]LSD, CHO-K1 membranes); details: displacement of [3H]LSD (1 nM), read-out: 5-HT2B pKi (converted)
T2 construct: expressed in transfected cells; host or cells: CHO-K1 cells
Method: The binding affinity of the compounds for human cloned 5-HT2B receptors was determined using the following assay.
CHO-K1 cells expressing cloned 5-HT2B receptor were maintained in Ultra-CHO medium containing 400 μg/ml of G418, 100 U/ml penicillin, 100 μg/ml streptomycin, 2.5 μg/ml fungizone and 1% foetal bovine serum, in 95/5% O2/CO2 at 37° C. The cells were harvested using 0.25% trypsin and were centrifuged at 800 rpm for 8 minutes. The cells were homogenised in 50 mM HEPES buffer containing 1 mM disodium EDTA and 1 mM PMSF at pH 7.4, using a Dounce homogeniser (20 strokes). The homogenate was centrifuged at 2280 rpm (1000 g) and 4° C. for 10 minutes, after which the supernatant was removed by decanting. The pellet was re-homogenised as above, and the resulting supernatant removed and combined with that already obtained. The supernatant solution was then centrifuged at 18300 rpm (40000 g) for 10 minutes at 4° C. using a Sorvall centrifuge. The supernatant was removed, and the pellet was re-suspended in 50 mM buffer at pH 7.4 using a Ultra-turrax T25 Polytron, before centrifugation again at 40000 g as above. This wash procedure was repeated, after which the membrane preparation was stored at a concentration of 1 mg/ml at −80° C. until use.
The membranes were thawed rapidly and diluted in assay buffer containing Tris-HCl (50 mM, pH 7.4), ascorbic acid (0.1%) and calcium chloride (4 mM). The membranes were homogenised to resuspend them, prior to adding 10 or 15 μg of membranes to assay wells containing [^3H]LSD (1 nM), assay buffer (50 mM Tris, 4 mM calcium chloride and 0.1% ascorbic acid) containing pargyline (10 μM), and the test compounds (1×10^−10 to 1×10^−4M). Non specific binding was determined in the presence of 100 μM 5-HT. After 30 minutes incubation at 37° C., the assay mixture was filtered through a combination of GF-C and GF-B filters, pre-soaked in 1% polyethyleneimine, using a Brandel cell harvester, and were washed three times using 50 mM Tris-HCl. Radioactivity retained on the filters was determined by liquid scintillation counting. For each test compound, the concentration that inhibited binding of [3H]LSD by 50% was determined using curve fitting software (Prism). Kd values (concentration of LSD required to occupy 50% of the receptor binding sites at equilibrium) determined from saturation binding studies were then used to calculate inhibition dissociation constants (Ki) using the following equation: […]
This approach follows that set out in Kenakin, T.P. Pharmacologic analysis of drug-receptor interaction. Raven Press, New York, 2nd Edition.

T1 sequence (P28223 whole entry): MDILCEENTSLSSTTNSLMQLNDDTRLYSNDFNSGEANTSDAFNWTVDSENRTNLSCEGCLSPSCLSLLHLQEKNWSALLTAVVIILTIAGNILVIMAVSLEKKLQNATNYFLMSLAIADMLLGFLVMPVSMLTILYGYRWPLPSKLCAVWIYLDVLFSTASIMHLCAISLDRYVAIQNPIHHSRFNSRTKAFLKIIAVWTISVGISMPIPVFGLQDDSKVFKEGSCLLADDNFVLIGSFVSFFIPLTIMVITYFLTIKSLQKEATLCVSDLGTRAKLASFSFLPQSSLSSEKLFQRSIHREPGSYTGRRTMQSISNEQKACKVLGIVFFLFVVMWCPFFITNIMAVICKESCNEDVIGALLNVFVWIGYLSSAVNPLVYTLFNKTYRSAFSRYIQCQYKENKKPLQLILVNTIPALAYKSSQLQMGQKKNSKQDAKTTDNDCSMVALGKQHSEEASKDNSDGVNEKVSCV
T2 sequence (P41595 whole entry): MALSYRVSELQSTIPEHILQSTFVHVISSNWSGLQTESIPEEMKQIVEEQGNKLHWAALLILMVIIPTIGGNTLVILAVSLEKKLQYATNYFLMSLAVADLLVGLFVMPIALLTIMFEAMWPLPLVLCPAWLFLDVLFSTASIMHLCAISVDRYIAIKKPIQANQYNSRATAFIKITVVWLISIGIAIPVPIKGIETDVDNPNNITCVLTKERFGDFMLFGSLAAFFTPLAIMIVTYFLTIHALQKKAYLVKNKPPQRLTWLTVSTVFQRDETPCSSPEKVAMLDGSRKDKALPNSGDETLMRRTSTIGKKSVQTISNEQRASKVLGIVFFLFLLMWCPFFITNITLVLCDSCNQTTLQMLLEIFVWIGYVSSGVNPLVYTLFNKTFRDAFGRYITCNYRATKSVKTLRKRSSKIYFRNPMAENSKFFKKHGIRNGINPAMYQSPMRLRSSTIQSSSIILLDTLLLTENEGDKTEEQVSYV

For `Cc1ccc2ccccc2c1-c1coc(N)n1` [Compound 6, 2-amino-4-(2′-methylnaphth-1-yl)oxazole], the Ki [1] was > 1000 nM and the Ki [2] was < 10 nM.
For `CC(C)c1nc(N)oc1-c1cccc2ccccc12` [Compound 7, 2-amino-4-isopropyl-5-(naphth-1-yl)oxazole], the Ki [1] was > 100 nM, the melting point was 127 to 129 °C and the Ki [2] was < 10 nM.
For `Nc1nc(-c2cccc3ccccc23)co1` [Compound 1, 2-amino-4-(naphth-1-yl)oxazole], the Ki [1] was > 10000 nM, the melting point was 155 to 162 °C and the Ki [2] was < 100 nM.
With `CC(C)c1nc(N)oc1-c1ccc(F)c2ccccc12` [Compound 31, 2-amino-5-(4′-fluoronaphth-1-yl)-4-isopropyloxazole] the Ki [1] was > 1000 nM, the melting point was 141 °C and the Ki [2] was < 10 nM.
With `COc1ccc2ccccc2c1-c1coc(N)n1` [Compound 17, 4-(2-methoxy-naphthalen-1-yl)-oxazol-2-ylamine] the Ki [1] was > 1000 nM and the Ki [2] was < 10 nM.
